According to US20030027787A1, “Crosslinked polysaccharide, obtained by crosslinking with substituted polyethylene glycol, as superabsorbant” (GROUP LYSAC INC./LYSAC GROUP INC., priority 2000, published 2003):

What was measured:
[1] = tested on: microorganisms
[2] = tested on: Daphnia magna

For “Starch Maleate Half Ester, Crosslinked with 0.08 Eq. Triglycol Dichloride [Example 21]”, the toxicity for microorganisms [1] was “no toxicity” and the “toxic product destroying the aquatic flora” value [2] was “no toxic product have been detected”.
